Assay results taken from patent publication US12077503B2, “Substituted cyclic amides and their use as herbicides” (FMC CORPORATION, priority 2015, dated 2024).

Assays:
Format in all cases: in vivo
Kochia (Kochia scoparia) [1] = assay: Test A preemergence
In short: (§1)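 Preemergence directed soil spray on seeded pots, or postemergence application to plants 2–10 cm, one- to two-leaf. Solvent mixture non-phytotoxic, with surfactant. Scored ~10 d later, visually, 0–100 vs untreated.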

[2] = system: barnyardgrass (Echinochloa crus-galli); assay: Test A preemergence
In short: as §1

[3] = system: giant foxtail (Setaria faberii); assay: Test A preemergence
In short: as §1

[4] = system: pigweed (Amaranthus retroflexus); assay: Test A preemergence
[5] = system: ragweed (common ragweed, Ambrosia elatior); assay: Test A preemergence
In short: as §1

[6] = system: ryegrass, Italian (Italian ryegrass, Lolium multiflorum); assay: Test A preemergence
In short: as §1

[7] = system: Galium (catchweed bedstraw, Galium aparine); assay: Test A postemergence; conditions: postemergence, 0 to 100 scale (0 no effect, 100 complete control)
In short: as §1

Kochia (Kochia scoparia) [8] = assay: Test A postemergence; conditions: postemergence, 0 to 100 scale (0 no effect, 100 complete control)
In short: as §1

[9] = system: barnyardgrass (Echinochloa crus-galli); assay: Test A postemergence; conditions: postemergence, 0 to 100 scale (0 no effect, 100 complete control)
In short: as §1

[10] = system: blackgrass (Alopecurus myosuroides); assay: Test A postemergence; conditions: postemergence, 0 to 100 scale (0 no effect, 100 complete control)
In short: as §1

corn (Zea mays) = assay: Test A postemergence; conditions: postemergence, 0 to 100 scale (0 no effect, 100 complete control)
In short: as §1

[11] = system: giant foxtail (Setaria faberii); assay: Test A postemergence; conditions: postemergence, 0 to 100 scale (0 no effect, 100 complete control)
In short: as §1

[12] = system: pigweed (Amaranthus retroflexus); assay: Test A postemergence; conditions: postemergence, 0 to 100 scale (0 no effect, 100 complete control)
In short: as §1

[13] = system: ragweed (common ragweed, Ambrosia elatior); assay: Test A postemergence; conditions: postemergence, 0 to 100 scale (0 no effect, 100 complete control)
In short: as §1

[14] = system: ryegrass, Italian (Italian ryegrass, Lolium multiflorum); assay: Test A postemergence; conditions: postemergence, 0 to 100 scale (0 no effect, 100 complete control)
In short: as §1

[15] = system: wheat (Triticum aestivum); assay: Test A postemergence; conditions: postemergence, 0 to 100 scale (0 no effect, 100 complete control)
In short: as §1

[16] = system: barnyardgrass (Echinochloa crus-galli); assay: Test B flooded paddy test; conditions: Flood, 250 g ai/ha; 0 to 100 scale where 0 is no effect and 100 is complete control; 13 to 15 d
In short: (§2)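 Greenhouse paddy pots with 2-leaf stage plants received compound by direct addition to floodwater 3 cm deep, kept at that level. Scored visually at 13–15 d versus controls (0 no effect; 100 complete control).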

[17] = system: ducksalad (Heteranthera limosa); assay: Test B flooded paddy test; conditions: Flood, 250 g ai/ha; 0 to 100 scale where 0 is no effect and 100 is complete control; 13 to 15 d
In short: as §2

rice (Oryra sativa) = assay: Test B flooded paddy test; conditions: Flood, 250 g ai/ha; 0 to 100 scale where 0 is no effect and 100 is complete control; 13 to 15 d
In short: as §2

[18] = system: sedge, umbrella (small-flower umbrella sedge, Cyperus difformis); assay: Test B flooded paddy test; conditions: Flood, 250 g ai/ha; 0 to 100 scale where 0 is no effect and 100 is complete control; 13 to 15 d
In short: as §2

[19] = 125 g ai/ha, Preemergence, visual injury after approximately 10 d, 0 to 100 scale where 0 is no effect and 100 is complete control
[20] = 500 g ai/ha, preemergence, 0 to 100 scale, 0 = no effect, 100 = complete control
[21] = 125 g ai/ha, visual rating after approx. 10 d
[22] = 500 g ai/ha, visual injury, approx. 10 d

Compound	Plant response rating, Kochia (Kochia (Kochia scoparia) [1]; [19])	Plant response rating, Kochia (Kochia (Kochia scoparia) [1]; [20])	Plant response rating, Barnyardgrass [2, 19]	Plant response rating, Barnyardgrass [2, 20]	Plant response rating, Foxtail, Giant [3, 19]	Plant response rating, Foxtail, Giant [3, 20]	Plant response rating, Pigweed [4, 19]	Plant response rating, Pigweed [4, 20]	Plant response rating, Ragweed [5, 19]	Plant response rating, Ragweed [5, 20]	Plant response rating, Ryegrass, Italian [6, 19]	Plant response rating, Ryegrass, Italian [6, 20]	Plant response rating, Galium [7, 21]	Plant response rating, Galium [7, 22]	Plant response rating, Kochia (Kochia (Kochia scoparia) [8]; [21])	Plant response rating, Kochia (Kochia (Kochia scoparia) [8]; [22])	Plant response rating, Barnyardgrass [9, 21]	Plant response rating, Barnyardgrass [9, 22]	Plant response rating, Blackgrass [10, 21]	Plant response rating, Blackgrass [10, 22]	also measured
CN1CC(c2ccc(F)c(F)c2)C(C(=O)Nc2ccccc2S(C)(=O)=O)C1=O (stereo not drawn) [Compound 640]	50	60	90	90	90	90	80	90	40	60	20	50	40	50	0	40	90	90	0	50	Plant response rating, Corn (corn (Zea mays); [21]): 0; Plant response rating, Corn (corn (Zea mays); [22]): 0; Plant response rating, Foxtail, Giant [11, 21]: 80; Plant response rating, Foxtail, Giant [11, 22]: 90; Plant response rating, Pigweed [12, 21]: 0; Plant response rating, Pigweed [12, 22]: 20; Plant response rating, Ragweed [13, 21]: 0; Plant response rating, Ragweed [13, 22]: 0; Plant response rating, Ryegrass, Italian [14, 21]: 0; Plant response rating, Ryegrass, Italian [14, 22]: 0; Plant response rating, Wheat [15, 21]: 0; Plant response rating, Wheat [15, 22]: 50; Plant response rating, Barnyardgrass [16]: 30; Plant response rating, Ducksalad [17]: 100; Plant response rating, Rice (rice (Oryra sativa)): 25; Plant response rating, Sedge, Umbrella [18]: 0
CN1CC(c2cc(F)cc(F)c2)C(C(=O)Nc2cccc(F)c2F)C1=O (stereo not drawn) [Compound 644]	50	80	90	90	90	90	60	70	50	60	60	90	50	60	20	70	90	90	60	70	Plant response rating, Corn (corn (Zea mays); [21]): 70; Plant response rating, Corn (corn (Zea mays); [22]): 80; Plant response rating, Foxtail, Giant [11, 21]: 90; Plant response rating, Foxtail, Giant [11, 22]: 90; Plant response rating, Pigweed [12, 21]: 20; Plant response rating, Pigweed [12, 22]: 30; Plant response rating, Ragweed [13, 21]: 0; Plant response rating, Ragweed [13, 22]: 40; Plant response rating, Ryegrass, Italian [14, 21]: 50; Plant response rating, Ryegrass, Italian [14, 22]: 80; Plant response rating, Wheat [15, 21]: 50; Plant response rating, Wheat [15, 22]: 80; Plant response rating, Barnyardgrass [16]: 85; Plant response rating, Ducksalad [17]: 98; Plant response rating, Rice (rice (Oryra sativa)): 15; Plant response rating, Sedge, Umbrella [18]: 0
CC(C)Oc1cccc(C2CN(C)C(=O)C2C(=O)Nc2cccc(F)c2F)c1 (stereo not drawn) [Compound 651]	60	70	90	90	90	100	40	100	50	90	90	90	60	60	0	40	90	90	60	70	Plant response rating, Corn (corn (Zea mays); [21]): 80; Plant response rating, Corn (corn (Zea mays); [22]): 90; Plant response rating, Foxtail, Giant [11, 21]: 80; Plant response rating, Foxtail, Giant [11, 22]: 80; Plant response rating, Pigweed [12, 21]: 0; Plant response rating, Pigweed [12, 22]: 30; Plant response rating, Ragweed [13, 21]: 0; Plant response rating, Ragweed [13, 22]: 20; Plant response rating, Ryegrass, Italian [14, 21]: 50; Plant response rating, Ryegrass, Italian [14, 22]: 70; Plant response rating, Wheat [15, 21]: 40; Plant response rating, Wheat [15, 22]: 60; Plant response rating, Barnyardgrass [16]: 60; Plant response rating, Ducksalad [17]: 100; Plant response rating, Rice (rice (Oryra sativa)): 0; Plant response rating, Sedge, Umbrella [18]: 0
